Reference: US8965708B2, “Method for the treatment of acquired lymphedema” (The Board of Trustees of the Leland Stanford Junior …, priority 2006, dated 2015)

Assay: Log Kow
Type: physicochemical

Row | Structure (SMILES) | Log Kow
1 | CC(C)OC(=O)C(C)c1cccc(C(=O)c2ccccc2)c1 (centres unmarked) [ketoprofen isopropyl ester] | 4.56
2 | CCOC(=O)C(C)c1cccc(C(=O)c2ccccc2)c1 (centres unmarked) [ketoprofen ethyl ester] | 4.14
